From PubChem BioAssay AID732 (Emory University Molecular Libraries Screening Center, 2007)
Calls of active or inactive are those of the source. The rule behind the calls is not given here.

system: in vivo angiogenesis, blood vessel count; assay: angiogenesis inhibition in living animals, in vivo study, HTS (AID 732); settings: active compounds read low;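 tested at 30 µM in the well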;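 note: zebrafish embryos dosed at one day post fertilization; 0% = reference inhibitor and 100% = plate mean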

Structure (SMILES)	vessel count % control
CC1=C(CC(=O)O)c2cc(F)ccc2/C1=C\c1ccc(S(C)=O)cc1 (stereo not drawn)	89.8% (inactive)
CCn1c(=O)[nH]c2cc(Cl)c(Cl)cc21	87.7% (inactive)
CN(C)CC[C@@H](c1ccc(Br)cc1)c1ccccn1	102% (inactive)
Clc1ccc2c(c1)C(N1CCNCC1)=Nc1ccccc1O2	98.2% (inactive)
c1ccc2c(c1)[I+]c1ccccc1-2	112% (inactive)
O=C(O)c1cc(=O)c2c(Cl)cc(Cl)cc2[nH]1	113% (inactive)
CC(=O)O[C@H]1C[C@@H]2CC[C@@H]3[C@H](CC[C@@]4(C)[C@H]3C[C@H]([N+]3(C)CCCCC3)[C@@H]4OC(C)=O)[C@@]2(C)C[C@@H]1[N+]1(C)CCCCC1	98% (inactive)
O=C(OCCN1CCCCC1)c1c[nH]c2ccccc12	109% (inactive)
Nc1nnc(-c2cccc(Cl)c2Cl)c(N)n1	62.2% (inactive)
C[C@H]1c2cccc(O)c2C(O)=C2C(=O)[C@]3(O)C(O)=C(C(N)=O)C(=O)[C@@H](N(C)C)[C@@H]3[C@@H](O)[C@@H]21	91.8% (inactive)
Clc1ccccc1C(c1ccccc1)(c1ccccc1)n1ccnc1	114% (inactive)
O=C(O)CCc1nc(-c2ccccc2)c(-c2ccccc2)o1	73.7% (inactive)
N=C1Sc2ccccc2C2=NCCCN12	104% (inactive)
COC1=C(OC)C(=O)c2ccccc2C1=O	115% (inactive)
CCCCCCCCCCCCCCCC(=O)NCCO	96.1% (inactive)
CCSC(=N)N	62.2% (inactive)
COc1cc(Cc2cnc(N)nc2N)cc(OC)c1OC	114% (inactive)
CCCN(CCC)C1CCc2cccc(O)c2C1 (stereo not drawn)	111% (inactive)
C[C@]12CCC(=O)C=C1CC[C@@H]1[C@@H]2[C@@H](O)C[C@@]2(C)[C@H]1CC[C@]2(O)C(=O)CO	102% (inactive)
CCCCCCC(C)(C)c1ccc([C@@H]2C[C@H](O)CC[C@H]2CCCO)c(O)c1	100% (inactive)
C#C[C@]1(O)CC[C@H]2[C@@H]3CCC4=Cc5oncc5CC4(C)[C@H]3CCC21C (stereo partly drawn)	118% (inactive)
COc1nc(C)nc(Cl)c1NC1=NCCN1	81.3% (inactive)
C[C@@]1(C2CCCC2)Cc2cc(OCC(=O)O)c(Cl)c(Cl)c2C1=O	75.4% (inactive)
CCN(CC)C(=O)c1ccc(O)c(OC)c1	96.8% (inactive)
CCCN(CCC)C1Cc2cc(OC)c(OC)cc2C1	72.2% (inactive)
C[C@]12C=CC(=O)C=C1CC[C@@H]1C2=CC[C@]2(C)[C@@H](C(=O)CN3CCN(c4cc(N5CCCC5)nc(N5CCCC5)n4)CC3)CC[C@@H]12	101% (inactive)

Structure (SMILES)	vessel count % control
O=C1C(c2c(O)[nH]c3c(Cl)cc(Cl)cc23)=Nc2ccc(Br)cc21	123% (inactive)
CC(=O)C(C)=O	99.7% (inactive)
NC(=Nc1ccccc1)NC(=O)c1nc(Cl)c(N)nc1N	104% (inactive)
COc1cc(C(O)CN)ccc1O (stereo not drawn)	83.3% (inactive)
Cc1cc(N)c2ccccc2[n+]1CCCCCCCCCCCCCC[n+]1c(C)cc(N)c2ccccc21	79.9% (inactive)
CN(Cc1cnc2nc(N)nc(N)c2n1)c1ccc(C(=O)N[C@@H](CCC(=O)O)C(=O)O)cc1	112% (inactive)
CCCCc1oc2ccccc2c1C(=O)c1cc(I)c(OCCN(CC)CC)c(I)c1	120% (inactive)
CCCCOC(=O)NS(=O)(=O)c1sc(CC(C)C)cc1-c1ccc(Cn2c(CC)nc3c(C)cc(C)nc32)cc1	89% (inactive)
Cc1cccc(C2CN(C)CCc3c2cc(O)c(O)c3Cl)c1 (stereo not drawn)	96.5% (inactive)
CC(N)c1cccc(Cl)c1Cl (stereo not drawn)	89.7% (inactive)
Brc1c(NC2=NCCN2)ccc2nccnc12	104% (inactive)
CN1C2CCC1CC(OC(=O)c1c[nH]c3ccccc13)C2 (stereo not drawn)	91.1% (inactive)
O=C(O)c1cc([N+](=O)[O-])ccc1NCCCc1ccccc1	92.5% (inactive)
N[C@@]1(C(=O)O)CC[C@@H](C(=O)O)C1	102% (inactive)
CC(C)NCC(O)c1ccc(O)c(O)c1 (stereo not drawn)	97.1% (inactive)
CCCC(CCC)C(=O)O	89.7% (inactive)
Nc1nc(OCc2ccccc2)c2[nH]cnc2n1	91% (inactive)
NCCc1cnc[nH]1	93.3% (inactive)
CC(C)C1C2CCC(C2)C1N (stereo not drawn)	95.1% (inactive)
CN(C)C(=O)C(CCN1CCC(O)(c2ccc(Cl)cc2)CC1)(c1ccccc1)c1ccccc1	126% (inactive)
CC(N)[C@H](O)c1ccc(O)c(O)c1 (stereo partly drawn)	106% (inactive)
NCC#Cc1ccccc1	107% (inactive)
NCC1(CC(=O)O)CCCCC1	98.7% (inactive)
CN(C)c1cc2c(Nc3ccc4c(cnn4Cc4ccccc4)c3)ncnc2cn1	84.7% (inactive)
C[N+]1(C)CCC(OC(=O)C(c2ccccc2)c2ccccc2)CC1	91.5% (inactive)
COc1ccc2c(c1)c(CC(=O)O)c(C)n2C(=O)c1ccccc1	116% (inactive)

Structure (SMILES)	vessel count % control
CCC(=O)c1ccc2c(c1)N(CCCN(C)C)c1ccccc1S2	112% (inactive)
COc1cc(C=C(C#N)C#N)cc(O)c1O	114% (inactive)
Nc1ccc(S(=O)(=O)Nc2ccnn2-c2ccccc2)cc1	122% (inactive)
N#C/C(=C\c1ccc(O)c(O)c1)C(=O)NCc1ccccc1	95.6% (inactive)
CSc1ccc(C(=O)c2[nH]c(=O)[nH]c2C)cc1	76.7% (inactive)
CS(=O)(=O)Nc1ccc([N+](=O)[O-])cc1Oc1ccccc1	80.2% (inactive)
CCCN(CCC)[C@@H]1CCc2cccc(O)c2C1	94.1% (inactive)
CC(C)NCC(O)COc1cccc2ccccc12 (stereo not drawn)	117% (inactive)
O=C(O)Cc1cnc[nH]1	110% (inactive)
COc1ccc2c(c1)c(CC(=O)N1CCOCC1)c(C)n2C(=O)c1ccc(Cl)cc1	55% (inactive)
CCN(c1nc(N)c(C(=O)N=C(N)N)nc1Cl)C(C)C	73.9% (inactive)
Cc1nc2n(c(=O)c1CCN1CCC(c3noc4cc(F)ccc34)CC1)CCCC2	104% (inactive)
Cn1c(=O)c2c(ncn2C)n(C)c1=O	113% (inactive)
C=CCn1c(=O)c2c(nc(-c3ccc(S(=O)(=O)O)cc3)n2C)n(C)c1=O	92% (inactive)
NCCNC(=O)c1ccc(Cl)cc1	106% (inactive)
CC(Cc1ccc(OCC(=O)O)cc1)NCC(O)c1cccc(Cl)c1 (stereo not drawn)	97.7% (inactive)
CCCCC#Cc1nc(N)c2ncn([C@@H]3O[C@H](C(=O)NCC)[C@@H](O)[C@H]3O)c2n1	110% (inactive)
CC(NC(C)(C)C)C(=O)c1cccc(Cl)c1 (stereo not drawn)	71.1% (inactive)
C=CCc1ccccc1OCC(O)CNC(C)C (stereo not drawn)	105% (inactive)
C=CCN1CCC2(C)c3cc(O)ccc3CC1C2C (stereo not drawn)	109% (inactive)
CC[N+](CC)(CC)CC(=O)Nc1c(C)cccc1C	85.1% (inactive)
CCCn1c(=O)c2[nH]c(-c3ccc(S(=O)(=O)O)cc3)nc2n(CCC)c1=O	70.2% (inactive)
CC(C)C(=O)c1c(C(C)C)nn2ccccc12	94.7% (inactive)
Cc1ccccc1C(OCCN(C)C)c1ccccc1 (stereo not drawn)	108% (inactive)
COc1ccc(CCN(C)CCCC(C#N)(c2cc(OC)c(OC)c(OC)c2)C(C)C)cc1OC (stereo not drawn)	102% (inactive)
CC/C(=C(\c1ccccc1)c1ccc(OCCN(C)C)cc1)c1ccccc1	64.7% (inactive)

Structure (SMILES)	vessel count % control
CN(C)C(=O)Oc1cccc([N+](C)(C)C)c1	87.6% (inactive)
N[C@@H](Cn1ccc(=O)[nH]c1=O)C(=O)O	102% (inactive)
O=C(Nc1ccccc1)c1cc([N+](=O)[O-])ccc1Cl	90.3% (inactive)
NC(=O)N1c2ccccc2C=Cc2ccccc21	96.4% (inactive)
O=[N+]([O-])c1cc(O)c(O)c([N+](=O)[O-])c1	89.3% (inactive)
NC(N)=NC(=O)c1nc(Cl)c(N2CCCCCC2)nc1N	119% (inactive)
O=C(/C=C/c1ccc(O)cc1)c1ccc(O)cc1O	98.4% (inactive)
Cc1cn([C@H]2C[C@@H](N=[N+]=[N-])[C@@H](CO)O2)c(=O)[nH]c1=O	91.6% (inactive)
O=C(C1CCCCC1)N1CC(=O)N2CCc3ccccc3C2C1 (stereo not drawn)	101% (inactive)
NNc1nncc2ccccc12	92.2% (inactive)
CC(C)NCC(O)c1cc(O)cc(O)c1 (stereo not drawn)	91.8% (inactive)
NC(=O)c1ncn([C@@H]2O[C@H](CO)[C@@H](O)[C@H]2O)c1O	94.8% (inactive)
O=C1NC(=O)C(c2ccccc2)(c2ccccc2)N1	92.7% (inactive)
S=C(S)N1CCCC1	73.2% (inactive)
Clc1cnc(Oc2ccc(Oc3ncc(Cl)cc3Cl)cc2)c(Cl)c1	96.7% (inactive)
NC1(C(=O)O)CCCCC1	110% (inactive)
NC(=O)C(=O)O	125% (inactive)
Cc1ccc(N(CC2=NCCN2)c2cccc(O)c2)cc1	77.7% (inactive)
CC(=O)[C@@]1(O)CC[C@H]2[C@@H]3CCC4=CC(=O)CC[C@]4(C)[C@H]3CC[C@@]21C	98.7% (inactive)
NCCCCN	106% (inactive)
CCN(CC)CCOCCOC(=O)C1(c2ccccc2)CCCC1	108% (inactive)
CC1(C)CCC=[N+]1[O-]	85.7% (inactive)
CN1CCC[C@H]1c1cccnc1	120% (inactive)
COc1ccc2c(c1)/C(=C/c1cnc[nH]1)C(=O)N2	73.2% (inactive)
N#C/C(=C\c1ccc(O)c(O)c1)C(=O)NCCCc1ccccc1	137% (inactive)
